Experimental data taken from PubChem BioAssay (NCI).
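96-well plates; 48 h exposure; 5 concentrations. Endpoints by linear interpolation between flanking doses. Not reached: highest tested concentration assigned. At the GI50, growth is halved. TGI: total growth inhibition.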

Assays:
Experiment in all cases: NCI-60 cell line screen, 48 h
SK-MEL-28 melanoma = tested on: SK-MEL-28 melanoma
NCI-H23 lung = tested on: NCI-H23 lung
SN12C renal = tested on: SN12C renal
UACC-62 melanoma = tested on: UACC-62 melanoma
MCF7 breast = tested on: MCF7 breast
TK-10 renal = tested on: TK-10 renal
SF-268 CNS = tested on: SF-268 CNS
HCT-116 colon = tested on: HCT-116 colon
NCI/ADR-RES ovarian = tested on: NCI/ADR-RES ovarian
A549 NSCLC = tested on: A549 NSCLC
KM12 colon = tested on: KM12 colon
UO-31 renal = tested on: UO-31 renal
SK-OV-3 ovarian = tested on: SK-OV-3 ovarian
CAKI-1 renal = tested on: CAKI-1 renal
RPMI-8226 leukemia = tested on: RPMI-8226 leukemia
COLO 205 colon = tested on: COLO 205 colon
SW-620 colon = tested on: SW-620 colon
OVCAR-4 ovarian = tested on: OVCAR-4 ovarian
HL-60(TB) leukemia = tested on: HL-60(TB) leukemia
786-0 renal = tested on: 786-0 renal
A498 renal = tested on: A498 renal
MDA-MB-231 breast = tested on: MDA-MB-231 breast
MALME-3M melanoma = tested on: MALME-3M melanoma
IGROV1 ovarian = tested on: IGROV1 ovarian
SR leukemia = tested on: SR leukemia
K-562 leukemia = tested on: K-562 leukemia
LOX IMVI melanoma = tested on: LOX IMVI melanoma
U251 CNS = tested on: U251 CNS
HOP-62 NSCLC = tested on: HOP-62 NSCLC
SK-MEL-2 melanoma = tested on: SK-MEL-2 melanoma
RXF 393 renal = tested on: RXF 393 renal
PC-3 prostate = tested on: PC-3 prostate
DU-145 prostate = tested on: DU-145 prostate
SK-MEL-5 melanoma = tested on: SK-MEL-5 melanoma
MDA-MB-435 = tested on: MDA-MB-435
NCI-H226 lung = tested on: NCI-H226 lung
T-47D breast = tested on: T-47D breast
NCI-H522 lung = tested on: NCI-H522 lung
OVCAR-8 ovarian = tested on: OVCAR-8 ovarian
OVCAR-3 ovarian = tested on: OVCAR-3 ovarian
HS 578T breast = tested on: HS 578T breast
SNB-19 CNS = tested on: SNB-19 CNS
OVCAR-5 ovarian = tested on: OVCAR-5 ovarian
SF-295 CNS = tested on: SF-295 CNS
CCRF-CEM leukemia = tested on: CCRF-CEM leukemia
UACC-257 melanoma = tested on: UACC-257 melanoma
M14 melanoma = tested on: M14 melanoma
MOLT-4 leukemia = tested on: MOLT-4 leukemia
SF-539 CNS = tested on: SF-539 CNS
NCI-H460 lung = tested on: NCI-H460 lung

Structure (SMILES): Nc1cc(N)c2nc(-c3ccccc3)c(Sc3ccc(Cl)c(Cl)c3)nc2c1
- GI50 (SK-MEL-28 melanoma): 13.7 µM
- TGI (SK-MEL-28 melanoma): 56.9 µM
- GI50 (NCI-H23 lung): 12.5 µM
- TGI (NCI-H23 lung): 34.5 µM
- GI50 (SN12C renal): 23.2 µM
- TGI (SN12C renal): > 100 µM
- GI50 (UACC-62 melanoma): 6.7 µM
- TGI (UACC-62 melanoma): 42.8 µM
- GI50 (MCF7 breast): 5.3 µM
- TGI (MCF7 breast): 37.8 µM
- GI50 (TK-10 renal): 14.6 µM
- TGI (TK-10 renal): 31.8 µM
- GI50 (SF-268 CNS): 13.7 µM
- TGI (SF-268 CNS): 51.1 µM
- GI50 (HCT-116 colon): 9.43 µM
- TGI (HCT-116 colon): 47.9 µM
- GI50 (NCI/ADR-RES ovarian): 19.1 µM
- TGI (NCI/ADR-RES ovarian): 60.4 µM
- GI50 (A549 NSCLC): 13.6 µM
- TGI (A549 NSCLC): 51.9 µM
- GI50 (KM12 colon): 11.3 µM
- TGI (KM12 colon): > 100 µM
- GI50 (UO-31 renal): 14 µM
- TGI (UO-31 renal): 76.7 µM
- GI50 (SK-OV-3 ovarian): 14.7 µM
- TGI (SK-OV-3 ovarian): 39.4 µM
- GI50 (CAKI-1 renal): 14 µM
- TGI (CAKI-1 renal): 41.1 µM
- GI50 (RPMI-8226 leukemia): 3.81 µM
- TGI (RPMI-8226 leukemia): 31.6 µM
- GI50 (COLO 205 colon): 10.8 µM
- TGI (COLO 205 colon): 33.6 µM
- GI50 (SW-620 colon): 20.9 µM
- TGI (SW-620 colon): 83.6 µM
- GI50 (OVCAR-4 ovarian): 20 µM
- TGI (OVCAR-4 ovarian): > 100 µM
- GI50 (HL-60(TB) leukemia): 8.02 µM
- TGI (HL-60(TB) leukemia): > 100 µM
- GI50 (786-0 renal): 22 µM
- TGI (786-0 renal): 92.1 µM
- GI50 (A498 renal): 21.9 µM
- TGI (A498 renal): 49.9 µM
- GI50 (MDA-MB-231 breast): 16.6 µM
- TGI (MDA-MB-231 breast): 54.2 µM
- GI50 (MALME-3M melanoma): 19.6 µM
- TGI (MALME-3M melanoma): 50.3 µM
- GI50 (IGROV1 ovarian): 2.93 µM
- TGI (IGROV1 ovarian): 27.8 µM
- GI50 (SR leukemia): 4.63 µM
- TGI (SR leukemia): 35.3 µM
- GI50 (K-562 leukemia): 16 µM
- TGI (K-562 leukemia): > 100 µM
- GI50 (LOX IMVI melanoma): 7.36 µM
- TGI (LOX IMVI melanoma): 24.5 µM
- GI50 (U251 CNS): 10.3 µM
- TGI (U251 CNS): > 100 µM
- GI50 (HOP-62 NSCLC): 12.4 µM
- TGI (HOP-62 NSCLC): 78.5 µM
- GI50 (SK-MEL-2 melanoma): 6.2 µM
- TGI (SK-MEL-2 melanoma): 31.1 µM
- GI50 (RXF 393 renal): 14 µM
- TGI (RXF 393 renal): 56.7 µM
- GI50 (PC-3 prostate): 5.78 µM
- TGI (PC-3 prostate): 35.9 µM
- GI50 (DU-145 prostate): 11.1 µM
- TGI (DU-145 prostate): 25 µM
- GI50 (SK-MEL-5 melanoma): 21.4 µM
- TGI (SK-MEL-5 melanoma): 95.5 µM
- GI50 (MDA-MB-435): 18.3 µM
- TGI (MDA-MB-435): 60.9 µM
- GI50 (NCI-H226 lung): 3.05 µM
- TGI (NCI-H226 lung): 9.19 µM
- GI50 (T-47D breast): 13.3 µM
- TGI (T-47D breast): > 100 µM
- GI50 (NCI-H522 lung): 7.67 µM
- TGI (NCI-H522 lung): 34 µM
- GI50 (OVCAR-8 ovarian): 24.7 µM
- TGI (OVCAR-8 ovarian): > 100 µM
- GI50 (OVCAR-3 ovarian): 11.7 µM
- TGI (OVCAR-3 ovarian): 46.4 µM
- GI50 (HS 578T breast): 30 µM
- TGI (HS 578T breast): > 100 µM
- GI50 (SNB-19 CNS): 17 µM
- TGI (SNB-19 CNS): 58.1 µM
- GI50 (OVCAR-5 ovarian): 38.9 µM
- TGI (OVCAR-5 ovarian): 59.5 µM
- GI50 (SF-295 CNS): 17.7 µM
- TGI (SF-295 CNS): 60.1 µM
- GI50 (CCRF-CEM leukemia): 2.52 µM
- TGI (CCRF-CEM leukemia): > 100 µM
- GI50 (UACC-257 melanoma): 17.6 µM
- TGI (UACC-257 melanoma): 59 µM
- GI50 (M14 melanoma): 32.2 µM
- TGI (M14 melanoma): > 100 µM
- GI50 (MOLT-4 leukemia): 4.08 µM
- TGI (MOLT-4 leukemia): > 100 µM
- GI50 (SF-539 CNS): 14.4 µM
- TGI (SF-539 CNS): 41.8 µM
- GI50 (NCI-H460 lung): 10.5 µM
- TGI (NCI-H460 lung): 33.5 µM
